Where “and” joins values, the source holds several entries; their conditions need not be identical. Equal entries are not always repeated. Blank lines part the entries; values can stand above or below the compound they belong to.
Assay: solvent given as SMILES
[1] = in c1cc(-n2c3ccccc3c3ccccc32)cc(-n2c3ccccc3c3ccccc32)c1
[2] = in c1ccc2c(c1)c1ccccc1n2-c1ccc(-c2ccc(-n3c4ccccc4c4ccccc43)cc2)cc1

SMILES: c1ccc(-n2c(-c3ccc(N(c4ccc(-c5ccc(N(c6ccc(-c7nc8c9ccccc9c9ccccc9c8n7-c7ccccc7)cc6)c6ccc(-c7nc8c9ccccc9c9ccccc9c8n7-c7ccccc7)cc6)cc5)cc4)c4ccc(-c5nc6c7ccccc7c7ccccc7c6n5-c5ccccc5)cc4)cc3)nc3c4ccccc4c4ccccc4c32)cc1
fluorescence lifetime (in ClCCl): 1.68 ns

SMILES: O=C1OC(=O)c2ccc(N(c3ccccc3)c3ccc4ccc5cccc6ccc3c4c56)c3cccc1c23
fluorescence lifetime (in CCCCCC): 4.36 ns
fluorescence lifetime (in c1ccccc1): 1.17 ns

SMILES: Cc1oc2c(Cl)cc3c(C)cc(=O)oc3c2c1C
fluorescence lifetime (in C1COCCO1): 0.08 ns
fluorescence lifetime (in CC#N): 0.15 ns
fluorescence lifetime (in CCO): 0.79 ns
fluorescence lifetime (in OCC(F)(F)F): 2.4 ns

SMILES: COC(=O)/C(C#N)=c1\s/c(=c2/s/c(=C(/C#N)C(=O)OC)c3cc(-c4ccc(OC)cc4)sc23)c2sc(-c3ccc(OC)cc3)cc12
fluorescence lifetime (in Cc1ccccc1): 4.36 ns

SMILES: CC(C)(C)c1ccc(Oc2cc3c4c(cc(Oc5ccc(C(C)(C)C)cc5)c5c6c(Oc7ccc(C(C)(C)C)cc7)cc7c8c(cc(Oc9ccc(C(C)(C)C)cc9)c(c2c45)c86)C(=O)N(c2ccccc2)C7=O)C(=O)N(c2ccccc2)C3=O)cc1
fluorescence lifetime (in ClC(Cl)Cl): 6 ns

SMILES: C(#Cc1ccccc1)c1ccccc1
fluorescence lifetime (in ClC(Cl)Cl): 3.89 ns

SMILES: CCC1(CC)c2cc(/C=C/c3cccs3)ccc2-c2c1c1c(c3c2C(CC)(CC)c2cc(/C=C/c4cccs4)ccc2-3)C(CC)(CC)c2cc(/C=C/c3cccs3)ccc2-1
fluorescence lifetime (in C1CCOC1): 1.6 ns

SMILES: Cc1cc(C)c(C2=C3C=CC=[N+]3[B-]3(F)Oc4cc(O)cc5c6ccc(C)cc6c6cc2n3c6c45)c(C)c1 (stereo unspecified)
fluorescence lifetime (in ClC(Cl)Cl): 4 ns

SMILES: [NH3+]C(Cc1ccc(O)cc1)C(=O)[O-] (stereo unspecified)
fluorescence lifetime (in O): 3.27 ns

SMILES: O=C1c2ccc(N(c3ccc(-c4ccccc4)cc3)c3ccc(-c4ccccc4)cc3)cc2C(=O)c2ccc(N(c3ccc(-c4ccccc4)cc3)c3ccc(-c4ccccc4)cc3)cc21
fluorescence lifetime (in Cc1ccccc1): 3.5 ns
fluorescence lifetime [2]: 5.6 ns

SMILES: C(#Cc1ccc(C#Cc2ccccc2)cc1)c1ccccc1
fluorescence lifetime (in ClC(Cl)Cl): 2.57 ns

SMILES: CCC1(CC)c2ccccc2-c2c1c1c(c3c2C(CC)(CC)c2cc(/C=C/c4cccs4)ccc2-3)C(CC)(CC)c2ccccc2-1
fluorescence lifetime (in C1CCOC1): 1.5 ns

SMILES: F[B-]1(F)OC(C#Cc2ccccc2)=C2CCc3ccccc3C2=[O+]1
fluorescence lifetime (in ClCCl): 2.79 ns

SMILES: Fc1nc(F)c(F)c(C#Cc2ccccc2C#Cc2c(F)c(F)nc(F)c2F)c1F
fluorescence lifetime (in CC#N): 1.81 ns

SMILES: c1cc2c([nH]c3c4[nH]c5sccc5c4c4nsnc4c23)s1
fluorescence lifetime (in C1CCOC1): 16.2 ns
fluorescence lifetime (in CCOC(C)=O): 16.5 ns
fluorescence lifetime (in CN(C)C=O): 16 ns
fluorescence lifetime (in Cc1ccccc1): 13.8 ns
fluorescence lifetime (in ClCCl): 13.2 ns

SMILES: CC(C)(C)c1ccc2c(c1)c1cc(C(C)(C)C)ccc1n2-c1ccc(C#Cc2ccc3c4ccc(C#Cc5ccc(C=O)cc5)cc4n(-c4ccc(C(F)(F)F)cc4)c3c2)cc1
fluorescence lifetime (in ClCCl): 0.84 ns

SMILES: O=C(O)COc1ccc2[nH]c3c(c2c1)CCCC3=O
fluorescence lifetime (in C1CCOC1): 0.319 ns
fluorescence lifetime (in C1COCCO1): 0.537 ns
fluorescence lifetime (in CC#N): 0.969 ns
fluorescence lifetime (in CCCCCCCCCCCCO): 1.16 ns
fluorescence lifetime (in CCCCCCCCCCO): 1.14 ns
fluorescence lifetime (in CCCCCCCCO): 1.19 ns
fluorescence lifetime (in CCCCCCO): 1.21 ns
fluorescence lifetime (in CCCCO): 1.11 ns
fluorescence lifetime (in CCO): 1.52 ns
fluorescence lifetime (in CCOC(C)=O): 0.464 ns
fluorescence lifetime (in CN(C)C=O): 1.91 ns
fluorescence lifetime (in CO): 1.72 ns
fluorescence lifetime (in CS(C)=O): 2.34 ns
fluorescence lifetime (in Cc1ccccc1): 0.585 ns
fluorescence lifetime (in O): 1.77 ns
fluorescence lifetime (in c1ccccc1): 0.632 ns

SMILES: c1ccc(-c2nc(-c3ccccc3)nc(-c3ccc(-n4c5ccccc5c5c6c(ccc54)-c4ccccc4C6(c4ccccc4)c4ccccc4)cc3)n2)cc1
fluorescence lifetime (in O=P(c1ccccc1)(c1ccccc1)c1ccccc1Oc1ccccc1P(=O)(c1ccccc1)c1ccccc1): 3.3 ns

SMILES: NCCc1c[nH]c2ccc(O)cc12
fluorescence lifetime (in CC#N): 4.1 ns
fluorescence lifetime (in CC(C)O): 4.28 ns
fluorescence lifetime (in CO): 4.04 ns
fluorescence lifetime (in O): 3.94 ns

SMILES: O=C1c2ccc(-c3ccc(N(c4ccccc4)c4ccccc4)cc3)cc2C(=O)c2ccc(-c3ccc(N(c4ccccc4)c4ccccc4)cc3)cc21
fluorescence lifetime (in Cc1ccccc1): 9 ns
fluorescence lifetime [2]: 10.2 ns

SMILES: C[Si](C)(C)O[Si]1(O[Si](C)(C)C)n2c3c4ccccc4c2/N=C2N=C(/N=c4/c5ccccc5/c(n41)=N/C1=NC(=N\3)/c3ccccc31)c1ccccc1\2
fluorescence lifetime (in CN(C)C=O): 5.57 ns

SMILES: Nc1cccc[nH+]1
fluorescence lifetime (in O): 11.2 ns

SMILES: CCCCCCCCCCCCCCCCCCN1C(=O)c2ccc3c4ccc5c6c(ccc(c7ccc(c2c37)C1=O)c64)C(=O)NC5=O
fluorescence lifetime (in CN(C)C=O): 3 ns

SMILES: O=S(=O)(c1ccc(N2c3ccccc3[Si](c3ccccc3)(c3ccccc3)c3ccccc32)cc1)c1ccc(N2c3ccccc3[Si](c3ccccc3)(c3ccccc3)c3ccccc32)cc1
fluorescence lifetime [1]: 4 ns

SMILES: Nc1ccc2c(c1)C(=O)NC2=O
fluorescence lifetime (in C1CCOC1): 12.4 ns and 20.8 ns
fluorescence lifetime (in C1COCCO1): 15 ns
fluorescence lifetime (in CC#N): 14 ns
fluorescence lifetime (in CCO): 10 ns
fluorescence lifetime (in CN(C)C=O): 22 ns

SMILES: CN1CCN(c2ccc3c4c(cccc24)C(=O)c2ccccc2-3)CC1
fluorescence lifetime (in C1CCCCC1): 8.9 ns
fluorescence lifetime (in C1CCOC1): 10 ns
fluorescence lifetime (in C1COCCO1): 10.3 ns
fluorescence lifetime (in CC1COC(=O)O1): 8.04 ns
fluorescence lifetime (in CC#N): 9.53 ns
fluorescence lifetime (in CC(C)=O): 8.45 ns
fluorescence lifetime (in CCCCCCCCO): 5.99 ns
fluorescence lifetime (in CCCCCO): 5.38 ns
fluorescence lifetime (in CCCCO): 5.03 ns
fluorescence lifetime (in CCCO): 4.66 ns
fluorescence lifetime (in CCO): 3.77 ns
fluorescence lifetime (in CCOC(C)=O): 9.8 ns
fluorescence lifetime (in CN(C)C=O): 8.27 ns
fluorescence lifetime (in CO): 2.93 ns
fluorescence lifetime (in CS(C)=O): 8.5 ns
fluorescence lifetime (in Cc1ccccc1): 9.37 ns
fluorescence lifetime (in ClC(Cl)Cl): 10.4 ns

SMILES: CCCCc1cc2cccc[n+]2[b-]2ccc(-c3cc[b-]4c(c3)c(CCCC)cc3cccc[n+]43)cc21
fluorescence lifetime (in C1CCCCC1): 3.5 ns

SMILES: N#Cc1ncc(-c2c3ccccc3c(-c3cnc(C#N)nc3)c3ccccc23)cn1
fluorescence lifetime (in CCO): 1.8 ns
fluorescence lifetime (in ClCCl): 5.8 ns

SMILES: Nc1ccc2[nH]ncc2c1
fluorescence lifetime (in C1CCCCC1): 4.9 ns
fluorescence lifetime (in CC#N): 4.7 ns
fluorescence lifetime (in CO): 6.4 ns
fluorescence lifetime (in O): 12.5 ns

SMILES: Fc1nc(F)c(F)c(/C=C2/C(c3c(F)c(F)nc(F)c3F)=Cc3ccccc32)c1F
fluorescence lifetime (in CC#N): 0.3 ns

SMILES: O=c1cc(C(F)(F)F)c2cc3c4c(c2o1)CCCN4CCC3
fluorescence lifetime (in C1CCCCC1): 4.3 ns
fluorescence lifetime (in CC#N): 5.6 ns
fluorescence lifetime (in CCC#N): 6.55 ns
fluorescence lifetime (in CCCCCCCl): 5.72 ns
fluorescence lifetime (in CCCCl): 5.78 ns
fluorescence lifetime (in CCO): 3.4 ns and 4.56 ns
fluorescence lifetime (in CCOC(C)=O): 5.4 ns
fluorescence lifetime (in OCC(F)(F)F): 3.97 ns
fluorescence lifetime (in OCC(O)CO): 3.5 ns

SMILES: C#CCN1C(=O)/C(=C/c2cc(OC(C)C)ccc2OC(C)C)N=C1C
fluorescence lifetime (in C1COCCO1): 1.66 ns
fluorescence lifetime (in CC#N): 2.22 ns
fluorescence lifetime (in CC(C)=O): 2.17 ns
fluorescence lifetime (in CCCCCC): 0.89 ns
fluorescence lifetime (in CCCCO): 0.82 ns
fluorescence lifetime (in CCCO): 0.85 ns
fluorescence lifetime (in CCO): 1 ns
fluorescence lifetime (in CCOC(C)=O): 1.5 ns
fluorescence lifetime (in CN(C)C=O): 2.62 ns
fluorescence lifetime (in CO): 1.1 ns
fluorescence lifetime (in CS(C)=O): 3.03 ns

Second part, the compound after the results:

fluorescence lifetime (in C1CCCCC1): 0.41 ns
SMILES: CN(C)c1ccc2nc(-c3ccc(C=C4C(=O)c5ccccc5C4=O)cc3)sc2c1

fluorescence lifetime (in ClCCl): 9.88 ns
SMILES: CCN(CC)c1ccc2cc(-c3ccc(-c4ccc(-c5cc6ccccc6oc5=O)cc4)cc3)c(=O)oc2c1

fluorescence lifetime (in CC#N): 8 ns
fluorescence lifetime (in ClCCl): 2.1 ns
SMILES: Cc1cc(-c2ccc(C(C)(C)C)cc2)cc(C)[o+]1

fluorescence lifetime (in ClCCl): 2.37 ns
SMILES: Cc1c(C(=O)c2ccccc2)c2ccc3cccc4c5cccc6ccc1c(c65)c2c34

fluorescence lifetime (in CC#N): 0.31 ns
SMILES: Cc1ccc(-c2ccc(/C=C/c3ccc([N+](=O)[O-])cc3)cn2)nc1

fluorescence lifetime (in C1CCOC1): 2.49 ns
fluorescence lifetime (in CC#N): 2.97 ns
fluorescence lifetime (in CCO): 3.29 ns
fluorescence lifetime (in CS(C)=O): 4.06 ns
SMILES: CCOC(=O)c1ccccc1-c1c2ccc(=O)cc-2oc2cc(OC(=O)[C@H](CSCc3ccc(C)cc3)NC(=O)OC(C)(C)C)ccc12

fluorescence lifetime (in C1CCOC1): 2.19 ns
fluorescence lifetime (in C1COCCO1): 2.06 ns
fluorescence lifetime (in CC#N): 2.21 ns
fluorescence lifetime (in CC(C)O): 1.42 ns
fluorescence lifetime (in CCO): 1.31 ns
fluorescence lifetime (in CCOC(C)=O): 2.37 ns
fluorescence lifetime (in CN(C)C=O): 2.51 ns
fluorescence lifetime (in CO): 1.4 ns
fluorescence lifetime (in CS(C)=O): 2.43 ns
fluorescence lifetime (in O): 2.94 ns
SMILES: NS(=O)(=O)c1ccc(N2N=C(c3ccc(O)cc3)CC2c2ccc([N+](=O)[O-])cc2)cc1 (stereo unspecified)

fluorescence lifetime (in CC#N): 10.2 ns
SMILES: C[n+]1ccc2c(ccc3c[n+](C)c4ccc5ccccc5c4c32)c1

fluorescence lifetime [1]: 23 ns
SMILES: O=C(c1ccc(N2c3ccccc3Oc3ccccc32)cc1)c1ccc(N2c3ccccc3Oc3ccccc32)cc1

fluorescence lifetime (in C1CCOC1): 1.1 ns
fluorescence lifetime (in C1COCCO1): 0.9 ns
fluorescence lifetime (in CC#N): 0.9 ns
fluorescence lifetime (in CCCCCO): 0.7 ns
fluorescence lifetime (in CCCCO): 0.8 ns
fluorescence lifetime (in CCCO): 0.7 ns
fluorescence lifetime (in CCO): 0.8 ns
fluorescence lifetime (in CO): 1.2 ns
fluorescence lifetime (in COCCOC): 1.3 ns
fluorescence lifetime (in ClC(Cl)Cl): 0.9 ns
fluorescence lifetime (in ClCCl): 1.3 ns
fluorescence lifetime (in OCCO): 1.1 ns
SMILES: COC(=O)c1c2ccccc2nc2ccccc12

fluorescence lifetime (in C1CCCCC1): 62 ns
SMILES: CCCCCCCC[Si](C)(C)c1cccc2ccccc12

fluorescence lifetime (in CC#N): 5.5 ns
SMILES: O=C(O)c1ccccc1-c1nc(-c2ccccc2)c2ccccn12

fluorescence lifetime (in C1CCCCC1): 25 ns
fluorescence lifetime (in CC#N): 25.3 ns
fluorescence lifetime (in CO): 26.7 ns
fluorescence lifetime (in ClCCl): 23.2 ns
SMILES: COc1c2ccccc2c(OC)c2c1c1cc(F)ccc1n2C

fluorescence lifetime (in ClCCl): 11.6 ns
SMILES: COc1ccc(-c2c3cc4ccccc4cc3c(C#Cc3ccccc3)c3cc4cc(C)sc4cc23)cc1

fluorescence lifetime (in ClCCl): 22 ns
SMILES: CC1(C)c2ccccc2N(c2ccc(-c3n[n+]4c(o3)-c3ccccc3O[B-]4(F)F)cc2)c2ccccc21

fluorescence lifetime (in CC#N): 1.22 ns
SMILES: Cc1ccc(-c2ccc(/C=C/c3ccc(N(C)C)cc3)cn2)nc1

fluorescence lifetime (in C1CCCCC1): 2 ns
SMILES: CN(C)C(=O)c1ccc(-c2nc3ccc(N(C)C)cc3s2)cc1

fluorescence lifetime (in CCO): 18 ns
SMILES: Cc1cc2cc3cc(C)c(C)cc3cc2cn1

fluorescence lifetime (in CC#N): 2.48 ns
SMILES: N#C/C(=C\c1ccc(C#N)cc1)c1nc(-c2ccc(Cl)cc2)c(-c2ccccc2)s1

fluorescence lifetime (in ClCCl): 4.1 ns
SMILES: CC[B-]1(CC)c2cccc3cc4ccccc4c(c23)-c2cccc(C)[n+]21

fluorescence lifetime (in ClCCCl): 0.18 ns
SMILES: N#Cc1ccc2nc3[nH]c(=O)[nH]c(=O)c3nc2c1

fluorescence lifetime (in CCCO): 0.175 ns
SMILES: CCOC(=O)c1ccc2c(c1)[se]c1c3ccc(C(=O)OCC)cc3n(C)c21

Reference: the Deep4Chem optical property database
